The results in this text go back to patent publication US8148392B2, “2-indolyl imidazo [4,5-d] phenanthroline derivatives and their use in the treatment of cancer” (Lorus Therapeutics Inc., priority 2005, dated 2012).

In test [1] the test system is p21 (cyclin-dependent kinase inhibitor). The test can be described thus: p21 mRNA expression in HT-29 cells, real-time PCR. It counts as cell-based, human. The conditions noted are these: HT-29, 1 μM, after 4 hr. How it is done: The effect of compounds of Formula I on the expression of genes regulated by KLF4 was determined as follows. Compound 3 was tested to determine its ability to increase the expression of the cell cycle regulator p21 (cyclin-dependent kinase inhibitor) in HT-29 colon carcinoma cells. […] HT-29 cells were incubated with DMSO (vehicle control), 35 μM ZnCl2, 1 μM or 4 μM TPEN, or 0.5 μM, 1 μM, 4 μM, or 7.5 μM compound 3 for 16 hours, and mRNA was extracted from the cells. The expression of p21 mRNA was analyzed by real-time polymerase chain reaction using the comparative CT method. This assay was carried out using methods described in Example 19.
The expressions of p21 gene and proteins were examined following treatment with compound 3. Gene expression of p21 in HT-29 cells treated with 1 μM compound 3 was determined at the indicated times as follows. Total RNA was extracted and gene expression level was determined by RT-PCR (FIG. 42A). The level of p21 protein in total cell lysate was measured by ELISA (FIG. 42B) as follows. HT-29 cells were treated with 1 μM compound 3 with and without 20 μM MG-132 (proteasome inhibitor) for indicated time.

Test [2] relates to normal cell lines PrEC, HMEC, WI38 and cancer cell lines DU145, MDA-MB-435, HT-29. The test can be described thus: Cancer cell selectivity, IC90 in normal versus cancer cell lines (XTT). It counts as cell-based, human. The conditions noted are these: average IC90 of all normal / average IC90 of all cancer cell lines, 6 to 7 days. An excerpt:
An exemplary method of assessing the differential sensitivity between normal and cancer cells for a compound has been described by Vassilev et al. (Anti-Cancer Drug Design (2001) 16:7). This method involves the comparison of IC90 values, i.e. the molar concentration of a test compound required to cause 90% growth inhibition of exponentially growing cells. Thus, the IC90 values for candidate compounds can be evaluated in various cancer cell lines (such as those outlined above) and normal cells (such as HUVEC and/or WI38 cells) and compared. IC90 values can be measured using a variety of standard techniques as known in the art. Cancer cell selectivity is calculated as a ratio between the average IC90 for all normal cell lines and the average IC90 for all cancer cell lines. Compounds with an IC90 ratio (normal/cancer) of >4 are considered to be selective for cancer cells (L. T. Vassilev et al., Anti-cancer Drug Design, 2001, 16: 7-17).
The normal cells lines used were PrEC (prostate), HMEC (breast), and WI38 (lung fibroblast) cell lines and the cancer cells lines were DU145 (prostate), MDA-MB-435 (breast), HT-29 (colon). IC90 values were also determined for the controls doxorubicin and etoposide. The cells were cultured as generally described in Example 13. Various concentrations of the compounds were incubated with the cells for 6 to 7 days, and the number of proliferating cells was measured using the XTT assay. Cancer cell selectivity was calculated as a ratio between the average IC90 for all normal and the average IC90 for all cancer cell lines.

Test [3] relates to 12 human tumour cell lines. The test can be described thus: Hollow fiber assay. In kind it is in vivo, athymic mice. As to conditions: for net cell kill: cell lines with net cell kill. An excerpt:
For example, the in vivo activity of candidate compounds can also be tested using the Hollow Fiber Assay (Hollingshead, M., et al., (1995) Life Sciences 57:131-141; and Decker et al., Eur. J. of Cancer 40: 821-826 (2004)). In this assay, cells growing in hollow fibers (polyvinylidine fluoride, PVDF) are implanted in various body compartments of mice. A standard panel of 12 tumour cell lines can be used for the hollow fiber screening of candidate compounds which have shown activity in vitro. These cell lines may include NCI-H23, NCI-H522, MDA-MB-231, MDA-MB-435, SW-620, COLO 205, LOX-IMVI, UACC-62, OVCAR-3, OVCAR-5, U251 and SF-295. In addition, alternate lines such as those described in the above in vitro section can be used for specialized testing of compounds. The cell lines are cultivated according to standard protocols, and fibers are prepared by flushing cells into the PVDF fibers and sealing them at 2 cm intervals. The samples generated from these seals are placed into tissue culture medium and incubated at 37° C. in 5% CO2 for 24 to 48 hours prior to implantation. A total of 3 different tumour lines are prepared for each experiment so that each mouse receives 3 intraperitoneal implants (1 of each tumour line) and 3 subcutaneous implants (1 of each tumour line). On the day of implantation, samples of each tumour cell line preparation are quantitated for viable cell mass by, for example, a stable endpoint MTT assay, so that the time zero cell mass is known. Mice are treated with experimental agents starting on day 3 or 4 following fiber implantation and continuing daily for 4 days. Each agent is administered by intraperitoneal injection at 2 dose levels. The fibers are collected from the mice on the day following the fourth compound treatment and subjected to the stable endpoint MTT assay. The optical density of each sample is determined spectrophotometrically at 540 nm and the mean of each treatment group is calculated. The percent net growth for each cell line in each treatment group is calculated and compared to the percent net growth in the vehicle treated controls. A 50% or greater reduction in percent net growth in the treated samples compared to the vehicle control samples is considered a positive result. Each positive result is given a score of […] and all of the scores are totaled for a given compound. The maximum possible score for an agent is 96 (12 cell lines×2 sites×2 dose levels×2 [score]).
A candidate compound that is screened initially in the hollow fiber assay may subsequently be tested in a xenograft model if it has a combined ip+sc score of 20 or greater, a sc score of 8 or greater, or produces cell kill of any cell line at either dose level evaluated. This scoring system has been validated by DCTDC statisticians in CTEP to represent a level of detection expected to score current “standard” agents as active.
The in vivo efficacy of compounds according to Formula I was tested by determining the efficacy of compound 3 in the hollow fiber assay. This assay is described in Decker et al., Eur. J. of Cancer 40: 821-826 (2004), and was carried out by implanting 12 human tumour cell lines (Breast; MDA-MB-231, MDA-MB-435. Glioma; U251, SF-295. Ovarian; OVCAR-3, OVCAR-5. Colon; COLO-205, SW-620. Melanoma; LOX-IMVI, UACC-62 and Lung; NCI-H23, NCI-H522) into athymic mice as follows. Cell cultures were cultivated in RPMI-1640 containing 10% FBS and 2 mM glutamine. […]

Structures are written as SMILES. “Also recorded” adds a separate entry of the source.

Regarding `Cc1[nH]c2ccccc2c1-c1nc2c3cccnc3c3ncccc3c2[nH]1` [Compound 3], the “p21 gene expression, change” value in test [1] is listed as “Increased gene expression of p21”. Also, in test [2], the “Normal/cancer IC90 ratio” value is given as over 4.3. In test [3] (2 dosages, 4 days treatment), this compound displayed an ip score of 22. This compound also had a sc score in test [3] (2 dosages, 4 days treatment) of 10. For the same compound, the results for the net cell kill entry in test [3] and in test [3] (listed as compound 3) were “positive cell killing; also recorded: one or more” and “positive cell kill”, respectively. Also, the total score in test [3] (ip + sc, maximum of 96) was 32.
